Results from patent US20220204439A1, “LIPIDS AND LIPID NANOPARTICLE FORMULATIONS FOR DELIVERY OF NUCLEIC ACIDS” (Acuitas Therapeutics, Inc., priority 2015, published 2022).

Key:
[1] = test system: luciferase expression in the liver; assay: In vivo luciferase mRNA expression in mouse liver with lipid nanoparticle formulations; set-up: species or system C57BL/6 mice; conditions: tail vein injection, liver 4 hours after administration, FLuc mRNA; for Liver Luc @ 0.3 mg/kg (ng luc/g liver) / Liver Luc @ 0.3 mg/kg dose: 0.3 mg mRNA/kg; for Liver Luc @ 0.3 mg/kg (ng luc/g liver) / Liver Luc @ 1.0 mg/kg (ng luc/g liver): LNP 50% cationic lipid/10% DSPC/38.5% cholesterol/1.5% PEG-DMA; for Liver Luc @ 1.0 mg/kg (ng luc/g liver) / Liver Luc @ 1.0 mg/kg dose: 1.0 mg mRNA/kg; for Liver Luc @ 0.3 mg/kg dose / Liver Luc @ 1.0 mg/kg dose: LNP 50% cationic lipid/10% DSPC/38.5% cholesterol/1.5% PEG-DMG
Protocol: Cationic lipid (MC3), DSPC, cholesterol and PEG-lipid were solubilized in ethanol at a molar ratio of 50:10:38.5:1.5. Lipid nanoparticles (LNP) were prepared at a total lipid to mRNA weight ratio of approximately 10:1 to 30:1. Briefly, the mRNA was diluted to 0.2 mg/mL in 10 to 50 mM citrate buffer, pH 4. Syringe pumps were used to mix the ethanolic lipid solution with the mRNA aqueous solution at a ratio of about 1:5 to 1:3 (vol/vol) with total flow rates above 15 ml/min. The ethanol was then removed and the external buffer replaced with PBS by dialysis. Finally, the lipid nanoparticles were filtered through a 0.2 μm pore sterile filter. Lipid nanoparticle particle size was 70-90 nm diameter as determined by quasi-elastic light scattering using a Nicomp 370 submicron particle sizer (Santa Barbara, Calif.).
Studies were performed in 6-8 week old female C57BL/6 mice (Charles River) according to guidelines established by an institutional animal care committee (ACC) and the Canadian Council on Animal Care (CCAC). Varying doses of mRNA-lipid nanoparticle were systemically administered by tail vein injection and animals euthanized at specific time points (1, 2, 4, 8 and 24 hrs) post-administration. Liver and spleen were collected in pre-weighted tubes, weights determined, immediately snap frozen in liquid nitrogen and stored at −80° C. until processing for analysis.
For liver, approximately 50 mg was dissected for analyses in a 2 mL FastPrep tubes (MP Biomedicals, Solon Ohio). ¼″ ceramic sphere (MP Biomedicals) was added to each tube and 500 μL of Glo Lysis Buffer—GLB (Promega, Madison Wis.) equilibrated to room temperature was added to liver tissue. Liver tissues were homogenized with the FastPrep24 instrument (MP Biomedicals) at 2×6.0 m/s for 15 seconds. Homogenate was incubated at room temperature for 5 minutes prior to a 1:4 dilution in GLB and assessed using SteadyGlo Luciferase assay system (Promega). Specifically, 50 μL of diluted tissue homogenate was reacted with 50 μL of SteadyGlo substrate, shaken for 10 seconds followed by 5 minute incubation and then quantitated using a CentroXS^3 LB 960 luminometer (Berthold Technologies, Germany). The amount of protein assayed was determined by using the BCA protein assay kit (Pierce, Rockford Ill.). Relative luminescence units (RLU) were then normalized to total ug protein assayed. To convert RLU to ng luciferase a standard curve was generated with QuantiLum Recombinant Luciferase (Promega). Based in the data provided in FIG. 1, the four-hour time point was chosen for efficacy evaluation of the lipid formulations (see Example 29).
The FLuc mRNA (L-6107) from Trilink Biotechnologies will express a luciferase protein, originally isolated from the firefly, Photinus pyralis. FLuc is commonly used in mammalian cell culture to measure both gene expression and cell viability. It emits bioluminescence in the presence of the substrate, luciferin. This capped and polyadenylated mRNA is fully substituted with 5-methylcytidine and pseudouridine.
The cationic lipids shown in Table 2 have previously been tested with nucleic acids. For comparative purposes, these lipids were also used to formulate lipid nanoparticles containing the FLuc mRNA (L-6107) using an in line mixing method, as described in example 28 and in PCT/US10/22614, which is hereby incorporated by reference in its entirety. […] Relative activity was determined by measuring luciferase expression in the liver 4 hours following administration via tail vein injection as described in example 28. The activity was compared at a dose of 0.3 and 1.0 mg mRNA/kg and expressed as ng luciferase/g liver measured 4 hours after administration, as described in Example 28. […]

[2] = pKa of formulated cationic lipids in lipid nanoparticles (TNS fluorescence assay); format: physicochemical; conditions: probe 2-(p-toluidino)-6-napthalene sulfonic acid (TNS), 1 µM final; formulated in LNP cationic lipid/DSPC/cholesterol/PEG-lipid 50/10/38.5/1.5 mol %; pH of half-maximal TNS fluorescence
Protocol: As described elsewhere, the pKa of formulated cationic lipids is correlated with the effectiveness of LNPs for delivery of nucleic acids (see Jayaraman et al, Angewandte Chemie, International Edition (2012), 51(34), 8529-8533; Semple et al, Nature Biotechnology 28, 172-176 (2010)). The preferred range of pKa is ˜5 to ˜7. […] Lipid nanoparticles comprising of cationic lipid/DSPC/cholesterol/PEG-lipid (50/10/38.5/1.5 mol %) in PBS at a concentration of 0.4 mM total lipid are prepared using the in-line process as described in Example 28. TNS was prepared as a 100 μM stock solution in distilled water. Vesicles were diluted to 24 μM lipid in 2 mL of buffered solutions containing, 10 mM HEPES, 10 mM MES, 10 mM ammonium acetate, 130 mM NaCl, where the pH ranged from 2.5 to 11. An aliquot of the TNS solution was added to give a final concentration of 1 μM and following vortex mixing fluorescence intensity was measured at room temperature in a SLM Aminco Series 2 Luminescence Spectrophotometer using excitation and emission wavelengths of 321 nm and 445 nm. A sigmoidal best fit analysis was applied to the fluorescence data and the pKa was measured as the pH giving rise to half-maximal fluorescence intensity (see FIG. 2).

## CCCCCCCCC(=O)N(CCCN(C)C)C(CCCCCCCCCOC(=O)C(CCCCCC)CCCCCCCC)CCCCCCCCCOC(=O)C(CCCCCC)CCCCCCCC (centres unmarked) [Compound 36]
[1]
  Liver Luc @ 0.3 mg/kg (ng luc/g liver): 541 ± 91 ng luc/g liver
  Liver Luc @ 1.0 mg/kg (ng luc/g liver): 4736 ± 980 ng luc/g liver
[2]
  pKa: 6.13

## CCCCC/C=C\C/C=C\CCCCCCCCC(CCCCCCCC/C=C\C/C=C\CCCCC)N(CCCN(C)C)C(=O)CCCCCCC/C=C\C/C=C\CCCCC [Compound 6]
[1]
  Liver Luc @ 0.3 mg/kg (ng luc/g liver): 19 ± 4 ng luc/g liver
  Liver Luc @ 1.0 mg/kg (ng luc/g liver): 211 ± 119 ng luc/g liver
[2]
  pKa: 6.14

## CCCCCCCCC(=O)N(CCCN(C)C)C(CCCCCCCCC(=O)OC(CCCCCC)CCCCCC)CCCCCCCCC(=O)OC(CCCCCC)CCCCCC [Compound 11]
[1]
  Liver Luc @ 0.3 mg/kg (ng luc/g liver): 2273 ± 294 ng luc/g liver
  Liver Luc @ 1.0 mg/kg (ng luc/g liver): 16502 ± 4301 ng luc/g liver
[2]
  pKa: 6.13

## CCCCCCCCC(=O)N(CCCN(C)C)C(CCCCCCCCC(=O)OCC(CCCCCC)CCCCCCCC)CCCCCCCCC(=O)OCC(CCCCCC)CCCCCCCC (centres unmarked) [Compound 13]
[1]
  Liver Luc @ 0.3 mg/kg (ng luc/g liver): 1537 ± 777 ng luc/g liver
  Liver Luc @ 1.0 mg/kg (ng luc/g liver): 10907 ± 2032 ng luc/g liver
[2]
  pKa: 6.22

## CCCCC/C=C\C/C=C\CCCCCCCCC(CCCCCCCC/C=C\C/C=C\CCCCC)OC(=O)CCN(C)C [MC2, reference compound]
[1]
  Liver Luc @ 0.3 mg/kg dose: 4 ± 1 ng luciferase/g liver

## CCCCC/C=C\C/C=C\CCCCCCCCC(CCCCCCCC/C=C\C/C=C\CCCCC)N(CCCN(C)C)C(=O)CCCCCCCC [Compound 5]
[1]
  Liver Luc @ 0.3 mg/kg (ng luc/g liver): 603 ± 167 ng luc/g liver
  Liver Luc @ 1.0 mg/kg (ng luc/g liver): 3640 ± 601 ng luc/g liver
[2]
  pKa: 6.27

## CCCCCCCCC(=O)N(CCCN(C)C)C(CCCCCC(=O)OCC(CCCCCC)CCCCCCCC)CCCCCC(=O)OCC(CCCCCC)CCCCCCCC (centres unmarked) [Compound 38]
[1]
  Liver Luc @ 0.3 mg/kg (ng luc/g liver): 905 ± 443 ng luc/g liver
  Liver Luc @ 1.0 mg/kg (ng luc/g liver): 5353 ± 2082 ng luc/g liver
[2]
  pKa: 6.45

## CCCCCCC(CCCC)COC(=O)CCCCCCCCC(CCCCCCCCC(=O)OCC(CCCC)CCCCCC)N(CCCN(C)C)C(=O)C(CC)CCCCC (centres unmarked) [Compound 35]
[1]
  Liver Luc @ 0.3 mg/kg (ng luc/g liver): 1083 ± 350 ng luc/g liver
  Liver Luc @ 1.0 mg/kg (ng luc/g liver): 8554 ± 4587 ng luc/g liver
[2]
  pKa: 5.97

## CCCCC/C=C\C/C=C\CCCCCCCCC(CCCCCCCC/C=C\C/C=C\CCCCC)OC(=O)CCCCN(C)C [MC4, reference compound]
[1]
  Liver Luc @ 0.3 mg/kg dose: 41 ± 10 ng luciferase/g liver

## CCCCCCCC(=O)N(CCCN(C)C)C(CCCCCCCCC(=O)OC(CCCCCC)CCCCCC)CCCCCCCCC(=O)OC(CCCCCC)CCCCCC [Compound 10]
[1]
  Liver Luc @ 0.3 mg/kg (ng luc/g liver): 2379 ± 93 ng luc/g liver
  Liver Luc @ 1.0 mg/kg (ng luc/g liver): 26181 ± 2900 ng luc/g liver
[2]
  pKa: 6.16

## CCCCC/C=C\C/C=C\CCCCCCCCC1(CCCCCCCC/C=C\C/C=C\CCCCC)OC[C@@H](CCN(C)C)O1 [XTC2, reference compound]
[1]
  Liver Luc @ 0.3 mg/kg dose: 80 ± 28 ng luciferase/g liver
  Liver Luc @ 1.0 mg/kg dose: 237 ± 99 ng luciferase/g liver

## CCCCCCCCC(=O)N(CCCN1CCCC1)C(CCCCCCCCC(=O)OCC(CCCC)CCCCCC)CCCCCCCCC(=O)OCC(CCCC)CCCCCC (centres unmarked) [Compound 15]
[1]
  Liver Luc @ 0.3 mg/kg (ng luc/g liver): 2708 ± 924 ng luc/g liver
  Liver Luc @ 1.0 mg/kg (ng luc/g liver): 15930 ± 4711 ng luc/g liver
[2]
  pKa: 6.32

## CCCCC/C=C\C/C=C\CCCCCCCCC(CCCCCCCC/C=C\C/C=C\CCCCC)N(CCCN(C)C)C(=O)C(CC)CCCCC (centres unmarked) [Compound 7]
[1]
  Liver Luc @ 0.3 mg/kg (ng luc/g liver): 833 ± 401 ng luc/g liver
  Liver Luc @ 1.0 mg/kg (ng luc/g liver): 8859 ± 780 ng luc/g liver
[2]
  pKa: 5.93

## CCCCCCCCC(CCCCCC)COC(=O)CCCCCC(CCCCCC(=O)OCC(CCCCCC)CCCCCCCC)N(CCCN(C)C)C(=O)CCCCCCCC(=O)OCC (centres unmarked) [Compound 40]
[1]
  Liver Luc @ 0.3 mg/kg (ng luc/g liver): 753 ± 156 ng luc/g liver
  Liver Luc @ 1.0 mg/kg (ng luc/g liver): 2203 ± 1555 ng luc/g liver
[2]
  pKa: 6.57

## CCCCC/C=C\C/C=C\CCCCCCCCC(CCCCCCCC/C=C\C/C=C\CCCCC)C(=O)N(CCCCCCCCC)CCCN(C)C [Compound 16]
[1]
  Liver Luc @ 0.3 mg/kg (ng luc/g liver): 231 ± 100 ng luc/g liver
  Liver Luc @ 1.0 mg/kg (ng luc/g liver): 1185 ± 838 ng luc/g liver
[2]
  pKa: 6.37

## CCCCCCCCCCC(CCCCCCCC)COC(=O)CCCCCC(CCCCCC(=O)OCC(CCCCCCCC)CCCCCCCCCC)N(CCCN(C)C)C(=O)CCCCCCCC (centres unmarked) [Compound 41]
[1]
  Liver Luc @ 0.3 mg/kg (ng luc/g liver): 832 ± 298 ng luc/g liver
  Liver Luc @ 1.0 mg/kg (ng luc/g liver): 7437 ± 1612 ng luc/g liver

## CCCCC/C=C\C/C=C\CCCCCCCCC(CCCCCCCC/C=C\C/C=C\CCCCC)NCCCN(C)C [A, reference compound]
[2]
  pKa: 7.05

## CCCCC/C=C\C/C=C\CCCCCCCCOCC(CN(C)C)OCCCCCCCC/C=C\C/C=C\CCCCC (centres unmarked) [DLinDMA, reference compound]
[1]
  Liver Luc @ 0.3 mg/kg dose: 13 ± 3 ng luciferase/g liver
  Liver Luc @ 1.0 mg/kg dose: 67 ± 20 ng luciferase/g liver

## CCCCC/C=C\C/C=C\CCCCCCCCC(CCCCCCCC/C=C\C/C=C\CCCCC)N(CCCN(C)C)C(=O)CCCCCCCC(=O)OCC [Compound 37]
[2]
  pKa: 5.61

## CCCCCC/C=C\C/C=C\COC(=O)CCCCCCCC(CCCCCCCC(=O)OC/C=C\CCCCCC)OC(=O)CCCN(C)C (centres unmarked) [319 (2% PEG), reference compound]
[1]
  Liver Luc @ 0.3 mg/kg dose: 258 ± 67 ng luciferase/g liver
  Liver Luc @ 1.0 mg/kg dose: 681 ± 203 ng luciferase/g liver

## CCCCC(CC)C(=O)OCCCCCCCCCC(CCCCCCCCCOC(=O)C(CC)CCCC)OC(=O)CCCN(C)C (centres unmarked) [Compound 137, reference compound]
[1]
  Liver Luc @ 0.3 mg/kg dose: 281 ± 203 ng luciferase/g liver
  Liver Luc @ 1.0 mg/kg dose: 588 ± 303 ng luciferase/g liver
